Results taken from US11919887B2, “Substituted tetrahydrofurans as modulators of sodium channels” (Vertex Pharmaceuticals Incorporated, priority 2019, dated 2024).

biological target: human Nav 1.8 (Homo sapiens, UniProt Q9Y5Y9); experiment: E-VIPR assay detecting and measuring Nav inhibition (HEK cells expressing truncated human Nav 1.8); assay type: cell-based; conditions: in the Absence of Human Serum in the E-VIPR Assay; read-out: IC50
Procedure, shortened: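 HEK cells expressing truncated human Nav1.8, transduced with KIR2.1 BacMam, were loaded with CC2-DMPE/DiSBAC6(3) FRET dyes and tested under electrical stimulation (E-VIPR). Compounds were run as 11-point 3-fold dilutions, top 300 nM final, 0.625% DMSO, with or without 25% human serum.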

Sequence of human Nav 1.8 (Q9Y5Y9 whole entry, looked up, the tested form may be a part): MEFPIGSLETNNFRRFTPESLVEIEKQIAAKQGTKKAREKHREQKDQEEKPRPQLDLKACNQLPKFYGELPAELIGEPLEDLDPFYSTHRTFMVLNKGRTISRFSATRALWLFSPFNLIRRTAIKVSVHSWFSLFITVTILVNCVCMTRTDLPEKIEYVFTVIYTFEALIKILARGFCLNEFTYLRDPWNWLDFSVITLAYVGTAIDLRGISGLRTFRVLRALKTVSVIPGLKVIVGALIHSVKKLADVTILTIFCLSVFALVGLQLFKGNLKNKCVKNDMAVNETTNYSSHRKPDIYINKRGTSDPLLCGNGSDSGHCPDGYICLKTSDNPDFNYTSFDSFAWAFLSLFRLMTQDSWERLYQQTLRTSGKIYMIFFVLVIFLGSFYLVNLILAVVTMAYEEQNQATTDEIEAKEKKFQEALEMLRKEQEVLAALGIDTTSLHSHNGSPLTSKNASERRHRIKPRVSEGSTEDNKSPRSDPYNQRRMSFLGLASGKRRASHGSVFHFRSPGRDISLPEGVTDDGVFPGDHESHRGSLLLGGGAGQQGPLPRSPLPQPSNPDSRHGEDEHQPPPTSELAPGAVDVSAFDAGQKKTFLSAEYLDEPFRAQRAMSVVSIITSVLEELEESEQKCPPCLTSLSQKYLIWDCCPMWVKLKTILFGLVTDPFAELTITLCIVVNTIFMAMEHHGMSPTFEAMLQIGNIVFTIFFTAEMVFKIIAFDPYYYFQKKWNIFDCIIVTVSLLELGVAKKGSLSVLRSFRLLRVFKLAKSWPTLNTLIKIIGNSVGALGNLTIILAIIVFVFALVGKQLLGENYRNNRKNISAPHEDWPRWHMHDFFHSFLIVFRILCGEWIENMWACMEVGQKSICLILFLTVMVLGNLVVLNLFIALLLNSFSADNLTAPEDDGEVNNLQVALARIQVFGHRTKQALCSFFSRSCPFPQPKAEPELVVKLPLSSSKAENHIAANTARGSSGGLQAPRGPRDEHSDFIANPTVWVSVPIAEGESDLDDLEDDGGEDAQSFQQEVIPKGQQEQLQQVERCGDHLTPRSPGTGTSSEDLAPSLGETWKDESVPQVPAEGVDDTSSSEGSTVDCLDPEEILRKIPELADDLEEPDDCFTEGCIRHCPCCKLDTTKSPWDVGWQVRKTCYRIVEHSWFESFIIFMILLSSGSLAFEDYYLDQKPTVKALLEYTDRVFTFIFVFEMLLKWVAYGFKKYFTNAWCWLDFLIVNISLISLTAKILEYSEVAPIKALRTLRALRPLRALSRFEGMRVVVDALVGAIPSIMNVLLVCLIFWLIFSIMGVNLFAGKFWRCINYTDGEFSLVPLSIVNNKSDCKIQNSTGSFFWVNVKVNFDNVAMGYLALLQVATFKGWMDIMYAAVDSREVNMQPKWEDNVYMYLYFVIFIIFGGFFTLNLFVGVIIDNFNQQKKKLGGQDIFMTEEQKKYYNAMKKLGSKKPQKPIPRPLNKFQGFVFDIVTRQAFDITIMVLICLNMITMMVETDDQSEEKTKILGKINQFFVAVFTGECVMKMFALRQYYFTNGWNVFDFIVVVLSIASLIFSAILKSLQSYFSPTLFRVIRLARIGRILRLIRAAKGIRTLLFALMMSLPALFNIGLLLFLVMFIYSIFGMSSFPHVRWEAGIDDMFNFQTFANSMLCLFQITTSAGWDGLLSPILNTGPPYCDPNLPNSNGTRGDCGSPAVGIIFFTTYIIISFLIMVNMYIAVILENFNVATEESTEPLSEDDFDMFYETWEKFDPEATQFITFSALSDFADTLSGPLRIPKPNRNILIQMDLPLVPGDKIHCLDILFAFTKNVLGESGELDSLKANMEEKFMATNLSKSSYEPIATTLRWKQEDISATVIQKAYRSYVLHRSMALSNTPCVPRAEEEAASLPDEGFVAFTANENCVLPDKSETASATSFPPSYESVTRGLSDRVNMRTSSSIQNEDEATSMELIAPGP

SMILES	IC50
Cc1c([C@@H]2[C@@H](C(=O)Nc3ccnc(C(N)=O)c3)O[C@](C)(C(F)(F)F)[C@@H]2C)ccc(F)c1F (stereo in doubt) [Compound 131, rel-(2S,3R,4R,5S)-4-[[3-(3,4-difluoro-2-methyl-phenyl)-4,5-dimethyl-5-(trifluoromethyl)tetrahydrofuran-2-carbonyl]amino]pyridine-2-carboxamide]	> 1000 nM
Cc1c([C@H]2[C@H](C(=O)Nc3ccnc(C(N)=O)c3)O[C@@](C)(C(F)(F)F)[C@H]2C)ccc(F)c1F (stereo in doubt) [Compound 132, rel-(2R,3S,4S,5R)-4-[[3-(3,4-difluoro-2-methyl-phenyl)-4,5-dimethyl-5-(trifluoromethyl)tetrahydrofuran-2-carbonyl]amino]pyridine-2-carboxamide]	< 10 nM
Cc1c([C@@H]2[C@@H](C)[C@@](C)(C(F)(F)F)O[C@H]2C(=O)Nc2ccnc(C(N)=O)c2)ccc(F)c1F (stereo in doubt) [Compound 133, rel-(2R,3S,4R,5S)-4-[[3-(3,4-difluoro-2-methyl-phenyl)-4,5-dimethyl-5-(trifluoromethyl)tetrahydrofuran-2-carbonyl]amino]pyridine-2-carboxamide]	10 to 100 nM
Cc1c([C@@H]2[C@@H](C(=O)Nc3ccnc(C(N)=O)c3)O[C@@](C)(C(F)(F)F)[C@H]2C)ccc(F)c1F (stereo in doubt) [Compound 134, rel-(2S,3R,4S,5R)-4-[[3-(3,4-difluoro-2-methyl-phenyl)-4,5-dimethyl-5-(trifluoromethyl)tetrahydrofuran-2-carbonyl]amino]pyridine-2-carboxamide]	100 to 1000 nM
COc1nc(C(F)F)ccc1[C@H]1[C@H](C(=O)Nc2ccnc(C(N)=O)c2)O[C@@](C)(C(F)(F)F)[C@H]1C (stereo in doubt) [Compound 140, rel-(2R,3S,4S,5R)-4-[[3-[6-(difluoromethyl)-2-methoxy-3-pyridyl]-4,5-dimethyl-5-(trifluoromethyl)tetrahydrofuran-2-carbonyl]amino]pyridine-2-carboxamide]	10 to 100 nM

same assay, conditions: in the Presence of Human Serum in the E-VIPR Assay; read-out: IC50

SMILES	IC50
CC[C@]1(C(F)(F)F)C[C@@H](c2ccc(F)c(F)c2OC)[C@H](C(=O)Nc2ccnc(C(N)=O)c2)O1 (stereo in doubt) [Compound 64, rel-(2R,3S,5R)-4-[[3-(3,4-difluoro-2-methoxy-phenyl)-5-ethyl-5-(trifluoromethyl)tetrahydrofuran-2-carbonyl]amino]pyridine-2-carboxamide]	10 to 100 nM
COc1cc(F)ccc1[C@H]1C[C@@](C)(C(F)(F)F)O[C@@H]1C(=O)Nc1ccnc(C(N)=O)c1 (stereo in doubt) [Compound 67, rel-(2S,3R,5S)-4-[[3-(4-fluoro-2-methoxy-phenyl)-5-methyl-5-(trifluoromethyl)tetrahydrofuran-2-carbonyl]amino]pyridine-2-carboxamide]	> 1000 nM
COc1cc(F)ccc1[C@@H]1C[C@](C)(C(F)(F)F)O[C@H]1C(=O)Nc1ccnc(C(N)=O)c1 (stereo in doubt) [Compound 68, rel-(2R,3S,5R)-4-[[3-(4-fluoro-2-methoxy-phenyl)-5-methyl-5-(trifluoromethyl)tetrahydrofuran-2-carbonyl]amino]pyridine-2-carboxamide]	10 to 100 nM
COc1c([C@@H]2[C@@H](C)[C@@](C)(C(F)F)O[C@H]2C(=O)Nc2ccnc(C(N)=O)c2)ccc(F)c1F (stereo in doubt) [Compound 96, rel-(2R,3S,4R,5S)-4-[[3-(3,4-difluoro-2-methoxy-phenyl)-5-(difluoromethyl)-4,5-dimethyl-tetrahydrofuran-2-carbonyl]amino]pyridine-2-carboxamide]	> 1000 nM
COc1c([C@@H]2[C@@H](C(=O)Nc3ccnc(C(N)=O)c3)O[C@@](C)(C(F)F)[C@H]2C)ccc(F)c1F (stereo in doubt) [Compound 97, rel-(2S,3R,4S,5R)-4-[[3-(3,4-difluoro-2-methoxy-phenyl)-5-(difluoromethyl)-4,5-dimethyl-tetrahydrofuran-2-carbonyl]amino]pyridine-2-carboxamide]	> 1000 nM
COc1c([C@@H]2[C@@H](C(=O)Nc3ccnc(C(N)=O)c3)O[C@](C)(C(F)F)[C@@H]2C)ccc(F)c1F (stereo in doubt) [Compound 98, rel-(2S,3R,4R,5S)-4-[[3-(3,4-difluoro-2-methoxy-phenyl)-5-(difluoromethyl)-4,5-dimethyl-tetrahydrofuran-2-carbonyl]amino]pyridine-2-carboxamide]	> 1000 nM
COc1c([C@H]2[C@H](C(=O)Nc3ccnc(C(N)=O)c3)O[C@@](C)(C(F)F)[C@H]2C)ccc(F)c1F (stereo in doubt) [Compound 99, rel-(2R,3S,4S,5R)-4-[[3-(3,4-difluoro-2-methoxy-phenyl)-5-(difluoromethyl)-4,5-dimethyl-tetrahydrofuran-2-carbonyl]amino]pyridine-2-carboxamide]	> 1000 nM
COc1c([C@H]2[C@@H](C)[C@@H](C)O[C@@H]2C(=O)Nc2ccnc(C(N)=O)c2)ccc(F)c1F (stereo in doubt) [Compound 107, rel-(2S,3R,4R,5R)-4-[[3-(3,4-difluoro-2-methoxy-phenyl)-4,5-dimethyl-tetrahydrofuran-2-carbonyl]amino]pyridine-2-carboxamide]	> 1000 nM
COc1c([C@@H]2[C@H](C)[C@H](C)O[C@H]2C(=O)Nc2ccnc(C(N)=O)c2)ccc(F)c1F (stereo in doubt) [Compound 108, rel-(2R,3S,4S,5S)-4-[[3-(3,4-difluoro-2-methoxy-phenyl)-4,5-dimethyl-tetrahydrofuran-2-carbonyl]amino]pyridine-2-carboxamide]	100 to 1000 nM
COc1c([C@H]2C[C@@H](C(F)(F)F)O[C@@H]2C(=O)Nc2ccnc(C(N)=O)c2)ccc(F)c1F (stereo in doubt) [Compound 109, rel-(2S,3R,5S)-4-[[3-(3,4-difluoro-2-methoxy-phenyl)-5-(trifluoromethyl)tetrahydrofuran-2-carbonyl]amino]pyridine-2-carboxamide]	> 1000 nM
COc1c([C@@H]2C[C@H](C(F)(F)F)O[C@H]2C(=O)Nc2ccnc(C(N)=O)c2)ccc(F)c1F (stereo in doubt) [Compound 110, rel-(2R,3S,5R)-4-[[3-(3,4-difluoro-2-methoxy-phenyl)-5-(trifluoromethyl)tetrahydrofuran-2-carbonyl]amino]pyridine-2-carboxamide]	100 to 1000 nM
COc1nc(C(F)(F)F)ccc1[C@@H]1[C@@H](C(=O)Nc2ccnc(C(N)=O)c2)O[C@](C)(C(F)(F)F)[C@@H]1C (stereo in doubt) [Compound 137, rel-(2S,3R,4R,5S)-4-[[3-[2-methoxy-6-(trifluoromethyl)-3-pyridyl]-4,5-dimethyl-5-(trifluoromethyl)tetrahydrofuran-2-carbonyl]amino]pyridine-2-carboxamide]	> 1000 nM
COc1nc(C(F)(F)F)ccc1[C@H]1[C@H](C(=O)Nc2ccnc(C(N)=O)c2)O[C@@](C)(C(F)(F)F)[C@H]1C (stereo in doubt) [Compound 138, rel-(2R,3S,4S,5R)-4-[[3-[2-methoxy-6-(trifluoromethyl)-3-pyridyl]-4,5-dimethyl-5-(trifluoromethyl)tetrahydrofuran-2-carbonyl]amino]pyridine-2-carboxamide]	10 to 100 nM
